Numbers after ± are expanded uncertainties.
Details: Crystal; visual observation

SMILES: OC[C@@H](O)[C@H](O)[C@@H](O)CO [xylitol]
- Normal melting temperature: 94.50 ± 1.1 °C
